{
  "source": "patent US10138255B2",
  "about": "“Piperazine derivatives as HIV protease inhibitors” (Merck Sharp & Dohme Corp., priority 2014, dated 2018)",
  "data": [
    {"test_system": "HIV-1 (H9IIIB strain)", "assay": "Cell-Based HIV Infection Assay Using a Reporter (MT4-GFP cells)", "settings": "Human immunodeficiency virus 1, inflection point (IP) of viral growth inhibition; MT4-GFP cells infected with HIV-1 H9IIIB; 50% normal human serum; mean of at least two independent experiments; read-out: Cell Based IP (50% NHS)", "method": "(§1) Cell-Based HIV Infection Assay Using a Reporter (“Cell-Based”):\n(§2) MT4-GFP cells contain a stably integrated HIV long terminal repeat promoter directing the transcription of green fluorescent protein (GFP). When HIV infects the cell, GFP is produced and the cell becomes green. MT4-GFP cells (250,000 cells/mL) were bulk-infected with HIV-1 (H9IIIB strain) at low multiplicity of infection (MOI) in RPM 1640 media, supplemented with 10% FBS for 24 h. Cells were then washed once in RPMI 1640 plus 10% FBS and resuspended in RPMI plus 50% normal human serum (NHS). Test compounds were serial-diluted in DMSO using an ECHO liquid dispenser. A control well included a combination of three HIV drugs (an inhibitor of HIV protease, integrase strand transfer and a non-nucleoside reverse transcriptase inhibitor; triple drug). The infected MT4-GFP cells were added to a 384-well poly-D-lysine coated black plate with clear bottom in which the diluted test compounds were placed. The cells were seeded in the plate at 8,000 cells per well and the final DMSO concentration was 0.4%. Infected cells were quantified at both 24 and 48 h post incubation using an Acumen eX3 plate reader. Viral reproductive ratio (R0) was determined using the number of infected cells at 48 h divided by the number of infected cells at 24 h. Percent viral growth inhibition was calculated by [1−(R−Rtripledrug)/(RDMSO−Rtripledrug)]*100. Compound potency inflection point (IP) was determined with use of a 4-parameter dose response curve analysis.\n(§3) Data shown in the table reflects the mean of at least two independent experiments.", "units": {"EC50": "µM"}, "values": [
      {"smiles": "N[C@H](C(=O)N[C@H]1CCC[C@@H]1CC[C@H]1CN[C@@H]2CCCS(=O)(=O)N1C2)[C@H](c1cncc(F)c1)c1ccc(Cl)c(F)c1", "note": "[Example 81, (βS)-4-chloro-N-[(1S,2R)-2-{2-[(6R,9S)-2,2-dioxido-2-thia-1,7-diazabicyclo[4.3.1]dec-9-yl]ethyl}cyclopentyl]-3-fluoro-β-(5-fluoropyridin-3-yl)-L-phenylalaninamide]", "EC50": 0.068},
      {"smiles": "N[C@H](C(=O)Nc1cccc(F)c1CCC1CNC2CCCS(=O)(=O)N1C2)[C@@H](c1ccc(F)cc1)c1cc(F)cc(F)c1", "note": "(stereo partly drawn) [Example 1, (βS)—N-{2-[2-(2,2-Dioxido-2-thia-1,7-diazabicyclo[4.3.1]dec-9-yl)ethyl]-3-fluorophenyl}-3,5-difluoro-β-(4-fluorophenyl)-L-phenylalaninamide]", "EC50": 0.0029},
      {"smiles": "C[C@@H]1CC([C@H](c2ccc(F)cc2)[C@H](N)C(=O)Nc2cccc(F)c2CC[C@H]2CN[C@@H]3CCCS(=O)(=O)N2C3)C[C@@H](C)O1", "note": "(stereo partly drawn) [Example 113, (βR)-β-[(2R,6R)-2,6-dimethyltetrahydro-2H-pyran-4-yl]-N-(2-{2-[(6R,9S)-2,2-dioxido-2-thia-1,7-diazabicyclo[4.3.1]dec-9-yl]ethyl}-3-fluorophenyl)-4-fluoro-L-phenylalaninamide]", "EC50": 0.022},
      {"smiles": "COC(=O)N[C@H](C(=O)Nc1cccc(F)c1CC[C@H]1CN[C@@H]2CCCS(=O)(=O)N1C2)[C@@H](c1ccc(F)cc1)[C@H]1CC[C@H](O)CC1", "note": "[Example 201, methyl [(1S)-2-[(2-{2-[(6R,9S)-2,2-dioxido-2-thia-1,7-diazabicyclo[4.3.1]dec-9-yl]ethyl}-3-fluorophenyl)amino]-1-{(R)-(4-fluorophenyl)[(1r,4R)-4-hydroxycyclohexyl]methyl}-2-oxoethyl]carbamate]", "EC50": 0.22},
      {"smiles": "COC(=O)N[C@H](C(=O)N[C@H]1CCC[C@@H]1CC[C@H]1CN[C@@H]2CCCS(=O)(=O)N1C2)[C@@H](c1ccc(Cl)cc1)c1ccc(OC)nc1", "note": "[Example 78, methyl [(1S,2S)-2-(4-chlorophenyl)-1-{[(1S,2R)-2-{2-[(1S,2S)-2,2-dioxido-2-thia-1,7-diazabicyclo[4.3.1]dec-9-yl]ethyl}cyclopentyl]carbamoyl}-2-(6-methoxypyridin-3-yl)ethyl]carbamate]", "EC50": 0.038},
      {"smiles": "N[C@H](C(=O)Nc1cncc(F)c1CC[C@H]1CN[C@@H]2CCCS(=O)(=O)N1C2)[C@@H](c1ccc(Cl)cc1)c1cc(F)cc(F)c1", "note": "[Example 236, (βS)-β-(4-chlorophcnyl)-N-(4-{2-[(6R,9S)-2,2-dioxido-2-thia-1,7-diazabicyclo[4.3.1]dec-9-yl]ethyl}-5-fluoropyridin-3-yl)-3,5-difluoro-L-phenylalaninamide]", "EC50": 0.0028},
      {"smiles": "COC(=O)N[C@H](C(=O)Nc1cccc(F)c1CCC1CNC2CCCS(=O)(=O)N1C2)[C@@H](c1ccc(F)cc1)c1cccc(C2CC2)c1", "note": "(stereo partly drawn) [Example 52, methyl [(1S,2S)-2-(3-cyclopropylphenyl)-1-({2-[2-(2,2-dioxido-2-thia-1,7-diazabicyclo[4.3.1]dec-9-yl)ethyl]-3-fluorophenyl}carbamoyl)-2-(4-fluorophenyl)ethyl]carbamate]", "EC50": 0.072},
      {"smiles": "COC(=O)N[C@H](C(=O)Nc1cccc(F)c1CC[C@H]1CN[C@@H]2CCCS(=O)(=O)N1C2)[C@@H](c1ccc(F)cc1)[C@H]1C[C@@H](OC)C1", "note": "[Example 105, methyl [(1S)-2-[(2-{2-[(6R,9S)-2,2-dioxido-2-thia-1,7-diazabicyclo[4.3.1]dec-9-yl]ethyl}-3-fluorophenyl)amino]-1-{(R)-(4-fluorophenyl)[(1s,3S)-3-methoxycyclobutyl]methyl}-2-oxoethyl]carbamate]", "EC50": 0.033},
      {"smiles": "N[C@H](C(=O)Nc1cncc(F)c1CC[C@H]1CN[C@@H]2CCCS(=O)(=O)N1C2)[C@H](c1cncc(F)c1)c1ccc(Cl)c(F)c1", "note": "[Example 234, (βS)-4-chloro-N-(4-{2-[(6R,9S)-2,2-dioxido-2-thia-1,7-diazabicyclo[4.3.1]dec-9-yl]ethyl}-5-fluoropyridin-3-yl)-3-fluoro-β-(5-fluoropyridin-3-yl)-L-phenylalaninamide]", "EC50": 0.05},
      {"smiles": "N[C@H](C(=O)Nc1cccc(F)c1CCC1CNC2CCCS(=O)(=O)N1C2)[C@@H](c1ccc(F)cc1)c1ccc2c(c1)CCC2", "note": "(stereo partly drawn) [Example 225, (2S,3S)-2-Amino-3-(2,3-dihydro-1H-inden-5-yl)-N-{2-[2-(2,2-dioxido-2-thia-1,7-diazabicyclo[4.3.1]dec-9-yl)ethyl]-3-fluorophenyl}-3-(4-fluorophenyl)propanamide]", "EC50": 0.045},
      {"smiles": "CCC(CC)[C@H](c1ccc(Cl)cc1)[C@H](N)C(=O)Nc1cccc(F)c1CCC1CNC2CCCS(=O)(=O)N1C2", "note": "(stereo partly drawn) [Example 70, (βR)-4-chloro-N-{2-[2-(2,2-dioxido-2-thia-1,7-diazabicyclo[4.3.1]dec-9-yl)ethyl]-3-fluorophenyl}-β-(1-ethylpropyl)-L-phenylalaninamide]", "EC50": 0.049},
      {"smiles": "CC1(C)C[C@@H]([C@H](c2ccc(Cl)cc2)[C@H](N)C(=O)Nc2cncc(F)c2CC[C@H]2CN[C@@H]3CCCS(=O)(=O)N2C3)CCO1", "note": "[Example 215, (βR)-4-chloro-β-[(4S)-2,2-dimethyltetrahydro-2H-pyran-4-yl]-N-(4-{2-[(6R,9S)-2,2-dioxido-2-thia-1,7-diazabicyclo[4.3.1]dec-9-yl]ethyl}-5-fluoropyridin-3-yl)-L-phenylalaninamide]", "EC50": 0.008},
      {"smiles": "CCO[C@H]1CC[C@H]([C@H](c2ccc(Cl)cc2)[C@H](N)C(=O)Nc2cccc(F)c2CC[C@H]2CN[C@@H]3CCCS(=O)(=O)N2C3)CC1", "note": "[Example 6, (2S,3R)-2-amino-3-(4-chlorophenyl)-N-(2-(2-((6R,9S)-2,2-dioxido-2-thia-1,7-diazabicyclo[4.3.1]decan-9-yl)ethyl)-3-fluorophenyl)-3-((1r,4R)-4-ethoxycyclohexyl)propanamide]", "EC50": 0.0062},
      {"smiles": "N[C@H](C(=O)Nc1cncc(F)c1CC[C@H]1CN[C@@H]2CCCS(=O)(=O)N1C2)[C@@H](c1ccc(Cl)cc1)C1CCOCC1", "note": "[Example 173, (βR)-4-chloro-N-(4-{2-[(6R,9S)-2,2-dioxido-2-thia-1,7-diazabicyclo[4.3.1]dec-9-yl]ethyl}-5-fluoropyridin-3-yl)-β-(tetrahydro-2H-pyran-4-yl)-L-phenylalaninamide]", "EC50": 0.023},
      {"smiles": "COC(=O)N[C@H](C(=O)Nc1cccc(F)c1CCC1CNC2CCCS(=O)(=O)N1C2)[C@@H](c1ccc(F)cc1)c1ccc(C(F)(F)F)cc1", "note": "(stereo partly drawn) [Example 224, Methyl [(1S)-2-({2-[2-(2,2-dioxido-2-thia-1,7-diazabicyclo[4.3.1]dec-9-yl)ethyl]-3-fluorophenyl}amino)-1-{(R)-(4-fluorophenyl)[4-(trifluoromethyl)phenyl]methyl}-2-oxoethyl]carbamate]", "EC50": 0.0057},
      {"smiles": "CC1(C)C[C@@H]([C@H](c2ccc(F)cc2)[C@H](N)C(=O)N[C@H]2CCCC[C@@H]2CC[C@H]2CN[C@@H]3CCCS(=O)(=O)N2C3)CCO1", "note": "[Example 148, (βR)-β-[(4S)-2,2-dimethyhetrahydro-2H-pyran-4-yl]-N-[(1S,2R)-2-{2-[(6R,9S)-2,2-dioxido-2-thia-1,7-diazabicyclo[4.3.1]dec-9-yl]ethyl}cyclohexyl]-4-fluoro-L-phenylalaninamide]", "EC50": 0.16},
      {"smiles": "C[C@@H]1C[C@H]([C@H](c2ccc(Cl)cc2)[C@H](N)C(=O)Nc2cccc(F)c2CC[C@H]2CN[C@@H]3CCCS(=O)(=O)N2C3)C[C@H](C)O1", "note": "[Example 121, (βR)-4-chloro-β-[(2R,4r,6S)-2,6-dimethyltetrahydro-2H-pyran-4-yl]-N-(2-{2-[(6R,9S)-2,2-dioxido-2-thia-1,7-diazabicyclo[4.3.1]dec-9-yl]ethyl}-3-fluorophenyl)-L-phenylalaninamide]", "EC50": 0.0057},
      {"smiles": "COC(=O)N[C@H](C(=O)Nc1cccc(F)c1CCC1CNC2CCCS(=O)(=O)N1C2)C(c1ccc(Cl)cc1)c1ccc(OC(C)C)nc1", "note": "(stereo in doubt) [Example 94, methyl {(1S,2R)-2-(4-chlorophenyl)-1-({2-[2-(2,2-dioxido-2-thia-1,7-diazabicyclo[4.3.1]dec-9-yl)ethyl]-3-fluorophenyl}carbamoyl)-2-[6-(1-methylethoxy)pyridin-3-yl]ethyl}carbamate]", "EC50": 0.0064}
    ]},
    {"test_system": "HIV-1 (H9IIIB strain)", "assay": "Cell-Based HIV Infection Assay Using a Reporter (MT4-GFP cells)", "settings": "inflection point (IP) of viral growth inhibition; MT4-GFP cells infected with HIV-1 H9IIIB; 50% normal human serum; mean of at least two independent experiments; read-out: Cell Based IP (50% NHS)", "method": "as §1, §2, §3", "units": {"EC50": "µM"}, "values": [
      {"smiles": "COC(=O)N[C@H](C(=O)Nc1cncc(F)c1CC[C@H]1CN[C@@H]2CCCS(=O)(=O)N1C2)C1(c2ccc(Cl)cc2)CCC(C(F)(F)F)CC1", "note": "(relative stereo) [Example 270, methyl {(1S)-1-[cis-1-(4-chlorophenyl)-4-(trifluoromethyl)cyclohexyl]-2-[(4-{2-[(6R,9S)-2,2-dioxido-2-thia-1,7-diazabicyclo[4.3.1]dec-9-yl]ethyl}-5-fluoropyridin-3-yl)amino]-2-oxoethyl}carbamate]", "EC50": 0.02}
    ]}
  ]
}
